Usually IC50 stands for the concentration needed to halve the response being measured.

This is an account of results in patent US20230023559A1, “ARYLMETHYLENE HETEROCYCLIC COMPOUNDS AS KV1.3 POTASSIUM SHAKER CHANNEL BLOCKERS” (D. E. Shaw Research, LLC, priority 2019, published 2023).

Test [1] concerns the target T1, Kv1.3 potassium channel (Homo sapiens, UniProt P22001).
T1 construct: expressed in transfected cells
Briefly: Kv1.3 potassium channel blocker activity, automated whole-cell patch clamp (Patchliner). Format: cell-based. To be noted: CHO-K1 cells stably expressing Kv1.3; whole cell current inhibition; read-out: Kv1.3_IC50. The procedure, abridged: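 CHO-K1 cells stably expressing Kv1.3, automated whole-cell patch clamp. Currents evoked by 100 ms steps from −90 mV holding to +40 mV at 0.1 Hz, sampled at 10 kHz unfiltered, P/4 leak subtraction; peak current inhibition measured, compound incubation ≤10 s between pulse trains.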

Test [2] concerns the target hERG channel (Homo sapiens, UniProt Q12809). Kind of test: hERG electrophysiology, automated whole-cell patch clamp (Patchliner). On the technique in general: hERG is a cardiac potassium channel; its block is linked to QT prolongation.
Description: CHO-K1 cells stably expressing hERG were grown in Ham's F-12 Medium with Glutamine containing 10% heat-inactivated FBS, 1% Penicillin/Streptomycin, Hygromycin (100 μg/ml) and G418 (100 μg/ml). Cells were grown in culture flasks at 37° C. in a 5% CO2-humidified incubator.
The cells were bathed in an extracellular solution containing 140 mM NaCl, 4 mM KCl, 2 mM CaCl2), 1 mM MgCl2, 5 mM Glucose, 10 mM HEPES; pH adjusted to 7.4 with NaOH; 295-305 mOsm. The internal solution contained 50 mM KCl, 10 mM NaCl, 60 mM KF, 20 mM EGTA, 10 mM HEPES; pH adjusted to 7.2 with KOH; 285 mOsm. All compounds were dissolved in DMSO at 30 mM. Compound stock solutions were freshly diluted with external solution to concentrations of 30 nM, 100 nM, 300 nM, 1 μM, 3 μM, 10 μM, 30 μM and 100 μM. The highest content of DMSO (0.3%) was present in 100 μM.
The voltage protocol (see Table B) was designed to simulate voltage changes during a cardiac action potential with a 300 ms depolarization to +20 mV (analogous to the plateau phase of the cardiac action potential), a repolarization for 300 ms to −50 mV (inducing a tail current) and a final step to the holding potential of −80 mV. The pulse frequency was 0.3 Hz. Control (compound-free) and compound pulse trains for each compound concentration applied contained 70 pulses.
Whole cell current recordings and compound application were enabled by means of an automated patch clamp platform Patchliner (Nanion). EPC 10 patch clamp amplifier (HEKA) along with Patchmaster software (HEKA Elektronik Dr. Schulze GmbH) was used for data acquisition. Data were sampled at 10 kHz without filtering. Increasing compound concentrations were applied consecutively to the same cell without washouts in between.
AUC and PEAK values were obtained with Patchmaster (HEKA Elektronik Dr. Schulze GmbH). To determine IC50 the last single pulse in the pulse train corresponding to a given compound concentration was used. Obtained AUC and PEAK values in the presence of compound were normalized to control values in the absence of compound. Using Origin (OridinLab), IC50 was derived from data fit to Hill equation: Icompound/Icontrol=(100−A)/(1+([compound]/IC50)nH)+A, where IC50 is the concentration at which current inhibition is half-maximal, [compound] is the applied compound concentration, A is the fraction of current that is not blocked and nH is the Hill coefficient.

hERG channel, sequence (Q12809 whole entry): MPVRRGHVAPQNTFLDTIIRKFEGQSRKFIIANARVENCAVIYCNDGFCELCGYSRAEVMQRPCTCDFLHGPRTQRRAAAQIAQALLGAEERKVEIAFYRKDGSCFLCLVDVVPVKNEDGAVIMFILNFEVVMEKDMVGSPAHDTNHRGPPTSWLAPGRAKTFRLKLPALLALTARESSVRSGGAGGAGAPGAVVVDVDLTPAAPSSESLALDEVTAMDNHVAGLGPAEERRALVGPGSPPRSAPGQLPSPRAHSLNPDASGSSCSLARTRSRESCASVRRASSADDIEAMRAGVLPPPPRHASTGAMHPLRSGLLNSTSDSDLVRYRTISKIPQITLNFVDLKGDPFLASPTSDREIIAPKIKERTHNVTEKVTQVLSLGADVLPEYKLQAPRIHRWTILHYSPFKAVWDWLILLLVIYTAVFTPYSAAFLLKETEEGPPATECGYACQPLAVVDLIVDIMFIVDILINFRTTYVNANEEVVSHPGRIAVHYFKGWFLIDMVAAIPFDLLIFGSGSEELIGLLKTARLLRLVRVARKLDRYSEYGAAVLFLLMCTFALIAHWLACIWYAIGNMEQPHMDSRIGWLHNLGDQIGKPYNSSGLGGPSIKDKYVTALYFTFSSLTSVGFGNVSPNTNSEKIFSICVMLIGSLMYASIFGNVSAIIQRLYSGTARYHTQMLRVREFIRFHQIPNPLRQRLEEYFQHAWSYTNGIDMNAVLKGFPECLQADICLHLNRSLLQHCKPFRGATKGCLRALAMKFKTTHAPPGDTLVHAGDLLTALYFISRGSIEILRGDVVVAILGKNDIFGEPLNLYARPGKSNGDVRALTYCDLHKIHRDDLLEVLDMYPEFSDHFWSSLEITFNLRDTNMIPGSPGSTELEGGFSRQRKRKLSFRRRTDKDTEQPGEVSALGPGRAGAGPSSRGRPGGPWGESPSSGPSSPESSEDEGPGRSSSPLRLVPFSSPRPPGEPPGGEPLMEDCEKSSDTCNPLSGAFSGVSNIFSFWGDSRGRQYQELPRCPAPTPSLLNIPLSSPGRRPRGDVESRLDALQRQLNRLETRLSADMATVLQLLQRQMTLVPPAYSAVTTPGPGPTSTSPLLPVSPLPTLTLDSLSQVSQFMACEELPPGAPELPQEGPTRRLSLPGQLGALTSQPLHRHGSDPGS
T1 sequence (P22001 whole entry): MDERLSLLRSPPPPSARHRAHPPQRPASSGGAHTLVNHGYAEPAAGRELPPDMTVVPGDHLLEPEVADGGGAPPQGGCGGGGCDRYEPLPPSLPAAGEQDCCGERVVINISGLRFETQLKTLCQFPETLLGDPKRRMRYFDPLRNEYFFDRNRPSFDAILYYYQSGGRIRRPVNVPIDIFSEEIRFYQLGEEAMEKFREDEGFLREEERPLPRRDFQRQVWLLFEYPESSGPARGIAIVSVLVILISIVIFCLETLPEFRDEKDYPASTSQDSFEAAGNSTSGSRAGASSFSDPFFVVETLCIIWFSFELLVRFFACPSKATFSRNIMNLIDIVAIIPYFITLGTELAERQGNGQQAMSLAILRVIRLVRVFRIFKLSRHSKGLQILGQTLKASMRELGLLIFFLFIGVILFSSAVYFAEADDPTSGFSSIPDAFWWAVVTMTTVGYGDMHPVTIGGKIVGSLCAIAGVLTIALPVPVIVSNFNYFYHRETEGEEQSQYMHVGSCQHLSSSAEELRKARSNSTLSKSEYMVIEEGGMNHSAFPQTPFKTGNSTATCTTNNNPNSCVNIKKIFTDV

As for `Cc1cc(O)c([C@H](N)C2CCN(C(=O)CO)CC2)cc1Cl` [Compound 233, (R)-1-(4-(amino(5-chloro-2-hydroxy-4-methylphenyl)methyl)piperidin-1-yl)-2-hydroxyethan-1-one trifluoroacetic acid], the IC50 was less than 0.5 µM in test [1] and more than 30 µM in test [2].

As to `N[C@@H](c1cc(Cl)c(Cl)cc1O)C1CCN(C(=O)C2(O)COC2)CC1` [Compound 143, 3-[4-[(R)-amino(4,5-dichloro-2-hydroxyphenyl)methyl]piperidine-1-carbonyl]oxetan-3-ol], the IC50 in test [1] is less than 10 µM; in test [2], more than 30 µM.

Take `Cc1cc(O)c([C@H](N)C2CCN(C(=O)[C@H](O)CO)CC2)cc1C` [Compound 293, (2R)-1-[4-[(R)-amino(2-hydroxy-4,5-dimethylphenyl)methyl]piperidin-1-yl]-2,3-dihydroxypropan-1-one Trifluoroacetic Acid]: the half-inhibitory concentration (IC50) in test [1] was less than 0.5 µM; in test [2], more than 30 µM.

Take `N[C@@H](c1cc(Cl)c(Cl)cc1O)C1CCN(S(=O)(=O)[C@@H]2CCNC2)CC1` (single isomer, unassigned; isomer 1) [Compound 112]: the IC50 was less than 0.5 µM in test [1] and more than 30 µM in test [2].

As for `N[C@@H](c1cc(Cl)c(Cl)cc1O)C1CCN(C(=O)[C@@H](O)CO)CC1` (single isomer, unassigned) [Compound 120], the values for the IC50 in test [1] and in test [2] were less than 0.5 µM and more than 30 µM, respectively.

Consider `O=C([C@@H]1CCNC1)N1CCC(C(O)c2c(O)ccc(Cl)c2Cl)CC1` (stereo partly drawn) [Compound 126, 3,4-dichloro-2-[hydroxy([1-[(3R)-pyrrolidine-3-carbonyl]piperidin-4-yl])methyl]phenol Trifluoroacetic Acid], for which the IC50 in test [1] is less than 10 µM; in test [2] it was more than 30 µM.

`NC(c1cc(Cl)c(Cl)cc1O)C1CCN(CC2CC2)CC1` (stereo not shown) [Compound 51, 2-[amino[1-(cyclopropylmethyl)piperidin-4-yl]methyl]-4,5-dichlorophenol Trifluoroacetic Acid]: the 50% inhibitory concentration (IC50) in test [1] is less than 10 µM; in test [2], more than 30 µM.

On to `N[C@@H](c1cc(Cl)c(Cl)cc1O)C1CCN(C(=O)NCCO)CC1` [Compound 209, 4-[(R)-amino(4,5-dichloro-2-hydroxyphenyl)methyl]-N-(2-hydroxyethyl)piperidine-1-carboxamide Trifluoroacetic Acid], for which the figures for the IC50 in test [1] and in test [2] were less than 0.5 µM and more than 30 µM, respectively.

As to `N#CC1(C(=O)N2CCC(C(N)c3cc(Cl)c(Cl)cc3O)CC2)CC1` (stereo not shown) [Compound 48, 1-(4-(amino(4,5-dichloro-2-hydroxyphenyl)methyl)piperidine-1-carbonyl)cyclopropanecarbonitrile Trifluoroacetic Acid], the half-inhibitory concentration (IC50) in test [1] is less than 0.5 µM; in test [2], less than 30 µM.

With `COCCS(=O)(=O)N1CCC([C@@H](N)c2cc(Cl)c(Cl)cc2O)CC1` [Compound 132, 2-[(R)-amino[1-(2-methoxyethanesulfonyl)piperidin-4-yl]methyl]-4,5-dichlorophenol Trifluoroacetic Acid], the figures for the half-inhibitory concentration (IC50) in test [1] and in test [2] were less than 10 µM and less than 30 µM, respectively.

For `CN1CCC(C(N)c2cc(Cl)c(Cl)cc2O)CC1` (stereo not shown) [Compound 21, 2-(amino(1-methylpiperidin-4-yl)methyl)-4,5-dichlorophenol], the half-inhibitory concentration (IC50) in test [1] was less than 10 µM; in test [2], less than 30 µM.

`N[C@@H](c1cc(Cl)c(Cl)cc1O)C1CCN(C(=O)CC2CNC2)CC1` [Compound 103, (R)-1-(4-(amino(4,5-dichloro-2-hydroxyphenyl)methyl)piperidin-1-yl)-2-(azetidin-3-yl)ethanone trifluoroacetic acid]: the values for the half-maximal inhibitory concentration (IC50) in test [1] and in test [2] were less than 0.5 µM and more than 30 µM, respectively.

Consider `Cc1cc(O)c([C@H](N)C2CCN(C(=O)[C@@H]3CCNC3)CC2)cc1Cl` [Compound 237, (4-((R)-amino(5-chloro-2-hydroxy-4-methylphenyl)methyl)piperidin-1-yl)((R)-pyrrolidin-3-yl)methanone trifluoroacetic acid], for which the IC50 in test [1] was less than 0.5 µM; in test [2], more than 30 µM.

In the case of `N[C@@H](c1cc(Cl)c(Cl)cc1O)C1CCN(C(=O)C2CNC(=O)OC2)CC1` (stereo partly drawn) [Compound 279, 5-[4-[(R)-amino(4,5-dichloro-2-hydroxyphenyl)methyl]piperidine-1-carbonyl]-1,3-oxazinan-2-one trifluoroacetic acid], the IC50 is less than 0.5 µM in test [1] and more than 30 µM in test [2].

As for `N[C@@H](c1cc(Cl)c(Cl)cc1O)C1CCN(C(=O)c2c[nH]c(=O)cn2)CC1` [Compound 186, (R)-5-(4-(amino(4,5-dichloro-2-hydroxyphenyl)methyl)piperidine-1-carbonyl) pyrazin-2(1H)-one], the figures for the half-inhibitory concentration (IC50) in test [1] and in test [2] were less than 0.5 µM and more than 30 µM, respectively.

With `Oc1ccc2ccccc2c1C(O)C1CCNCC1` (stereo not shown) [Compound 30, 1-(hydroxy(piperidin-4-yl)methyl)naphthalen-2-ol], the figures for the IC50 in test [1] and in test [2] were less than 10 µM and more than 30 µM, respectively.

Regarding `N[C@@H](c1cc(Cl)c(Cl)cc1O)C1CCN(C(=O)CO)CC1` [Compound 135, 1-[4-[(R)-amino(4,5-dichloro-2-hydroxyphenyl)methyl]piperidin-1-yl]-2-hydroxyethan-1-one trifluoroacetic acid], the IC50 in test [1] is less than 0.5 µM; in test [2] it was more than 30 µM.

As to `CC1CN(C(=O)[C@H](O)CO)CCC1[C@@H](N)c1cc(Cl)c(Cl)cc1O` (single isomer, unassigned; isomer 1) [Compound 331], the IC50 in test [1] was less than 0.5 µM; in test [2], more than 30 µM.

With `N[C@@H](c1cc(Cl)c(Cl)cc1O)C1CCN(C(=O)[C@@H]2COCCN2)CC1` [Compound 195, (4-((R)-amino(4,5-dichloro-2-hydroxyphenyl)methyl)piperidin-1-yl)((S)-morpholin-3-yl)methanone], the IC50 in test [1] was less than 0.5 µM; in test [2], more than 30 µM.

Regarding `N[C@@H](c1cc(Cl)c(Cl)cc1O)C1CCN(C(=O)[C@H]2CCN2)CC1` [Compound 95, (4-((R)-amino(4,5-dichloro-2-hydroxyphenyl)methyl)piperidin-1-yl)((R)-azetidin-2-yl)methanone], the IC50 is less than 0.5 µM in test [1] and more than 30 µM in test [2].

For the compound `CN1C(=O)CC[C@@H]1C(=O)N1CCC([C@@H](N)c2cc(Cl)c(Cl)cc2O)CC1` [Compound 216, (5R)-5-[4-[(R)-amino(4,5-dichloro-2-hydroxyphenyl)methyl]piperidine-1-carbonyl]-1-methylpyrrolidin-2-one], the concentration for half-maximal inhibition (IC50) is less than 10 µM in test [1] and more than 30 µM in test [2].

As for `Cn1cc(C(=O)N2CCC([C@@H](N)c3cc(Cl)c(Cl)cc3O)CC2)ncc1=O` [Compound 298, 5-[4-[(R)-amino(4,5-dichloro-2-hydroxyphenyl)methyl]piperidine-1-carbonyl]-1-methylpyrazin-2-one Trifluoroacetic Acid], the 50% inhibitory concentration (IC50) in test [1] is less than 0.5 µM; in test [2], less than 30 µM.

For the compound `N[C@@H](c1cc(Cl)c(Cl)cc1O)C1CCN(c2ccn[nH]2)CC1` [Compound 154, 2-[(R)-amino[1-(1H-pyrazol-3-yl)piperidin-4-yl]methyl]-4,5-dichlorophenol Trifluoroacetic Acid], the results for the half-maximal inhibitory concentration (IC50) in test [1] and in test [2] were less than 10 µM and more than 30 µM, respectively.
